Laboratory results as given in publication PMC5586252, “PP2A-B′ holoenzyme substrate recognition, regulation and role in cytokinesis” (Cell Discovery, 2017).
“Also recorded” adds a separate entry of the source. Where no end group is shown, it is not given here.

Columns and labels:
B′γ1 = molecular target: T1, B′γ1 (Homo sapiens, UniProt Q13362); experiment: Isothermal titration calorimetry of synthetic peptides; format: binding; details: for Kd: ITC, 1 mM peptide titrated to 20–50 μM B′γ1, 20 mM HEPES pH 7.5, 200 mM NaCl; for interaction with B′γ1 by ITC (in words): phospho-peptides with pS/pT at position 6 and negatively charged residues at positions 2, 7 and 8
T1 construct: Expression and purification of full-length PP2A Aα, Cα, B′γ1 and PR70 (B″ family); made in house
T1 sequence (Q13362 whole entry, looked up): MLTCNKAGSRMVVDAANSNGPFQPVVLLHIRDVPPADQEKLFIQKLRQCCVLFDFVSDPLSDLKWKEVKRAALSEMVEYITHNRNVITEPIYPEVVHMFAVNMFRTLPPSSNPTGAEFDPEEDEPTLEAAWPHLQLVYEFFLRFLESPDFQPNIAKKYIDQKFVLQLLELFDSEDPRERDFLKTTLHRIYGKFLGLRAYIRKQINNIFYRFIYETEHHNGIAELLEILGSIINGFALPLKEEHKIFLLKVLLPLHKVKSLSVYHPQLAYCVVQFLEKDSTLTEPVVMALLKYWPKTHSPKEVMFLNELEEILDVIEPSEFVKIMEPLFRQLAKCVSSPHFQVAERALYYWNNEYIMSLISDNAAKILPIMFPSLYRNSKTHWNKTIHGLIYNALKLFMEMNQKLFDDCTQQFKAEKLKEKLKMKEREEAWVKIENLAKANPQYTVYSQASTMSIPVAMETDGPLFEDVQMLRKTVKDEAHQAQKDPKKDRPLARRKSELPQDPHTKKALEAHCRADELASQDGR
Procedure: The binding affinities between B′γ1 and synthetic CIP2A and Cyk4 peptides (GenScript, Piscataway, NJ, USA) were determined by titrating 1 mM of peptides to 20–50 μM B′γ1 in 20 mM HEPES (pH 7.5), 200 mM NaCl using VP-ITC microcalorimeter (MicroCal, Malvern Instrument, Malvern, UK). The data were fitted with Origin 7.0 (MicroCal, Malvern Instrument, Malvern, UK) to calculate the equilibrium association constant.

[1] = tested on: PP2Ac–Cyk4 interaction in HeLa cells; experiment: Co-immunoprecipitation of FLAG-Cyk4 with PP2Ac in synchronized cells; format: cell-based; details: 200 nM for 30 min; HeLa cells with FLAG-Cyk4 and V5-CIP2A, synchronized with monastrol, 0–90 min after its removal
Procedure: Thirty-six hours after HeLa cells were transfected with FLAG-Cyk4 and V5-CIP2A expression vectors, the transfected cells were arrested at […] with 100 μM monastrol for 14 h, followed by incubation with 200 nM BI-2536 or solvent control for 30 min. Cells were collected at the indicated time points after removal of monastrol to allow cell cycle progression. The interaction between FLAG-Cyk4 and PP2Ac were determined by co-immunoprecipitation using antibody that specifically recognizes FLAG-tag. PP2Ac associated with FLAG-Cyk4 and from cell lysate input were determined by western blot using customer-made antibody against PP2Ac.

Row | Kd (B′γ1) [µM] | Compound | interaction with B′γ1 by ITC (in words) (B′γ1) | further results
1 | 7.2 | NRKLESVAEEHE [CIP2A peptide] |  | 
2 |  | LEPVRpSEE | no binding; also recorded: no interaction could be detected | 
3 |  | CC[C@@H]1C(=O)N(C)c2cnc(Nc3ccc(C(=O)NC4CCN(C)CC4)cc3OC)nc2N1C1CCCC1 [BI-2536] |  | effect on interaction between PP2Ac and Cyk4 (co-IP) [1]: blocked and delayed the interaction between PP2Ac and Cyk4
4 |  | LEPIRpSEE | no binding; also recorded: no interaction could be detected | 
5 |  | LEPIRpTEE | no binding; also recorded: no interaction could be detected | 
6 | 1.59 | NKRLSTIDEEGS [Cyk4 peptide S149E] |  | 
